Molecular target: T1, SIRT7 protein (Homo sapiens, UniProt Q9NRC8)
T1 construct: purchased SignalChem S41-30H
T1 sequence (Q9NRC8 1-400): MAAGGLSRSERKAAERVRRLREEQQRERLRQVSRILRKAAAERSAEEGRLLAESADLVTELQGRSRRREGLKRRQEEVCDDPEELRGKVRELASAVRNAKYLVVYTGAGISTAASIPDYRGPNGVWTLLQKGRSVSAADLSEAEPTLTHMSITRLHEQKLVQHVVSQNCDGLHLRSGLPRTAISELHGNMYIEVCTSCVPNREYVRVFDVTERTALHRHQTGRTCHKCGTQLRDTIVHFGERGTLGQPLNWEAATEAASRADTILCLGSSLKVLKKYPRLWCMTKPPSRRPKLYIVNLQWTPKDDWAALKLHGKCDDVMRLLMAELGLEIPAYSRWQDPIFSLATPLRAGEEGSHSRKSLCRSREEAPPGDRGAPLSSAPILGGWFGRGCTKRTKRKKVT
Test: SIRT Glo assay, inhibitory activity against Sirt7
Format: biochemical
Details: 10 μM compound
Procedure: Promega's Cat. No. 6450 SIRT Glo assay kit was used, and as the target SIRT7 protein, No. S41-30H protein of SignalChem's Cat. was used. Prepare the compound by diluting it in SIRT Glo buffer in advance to a concentration twice as thick as the final concentration. For the positive control group of white 384 well plate (Greiner Bioone, white, small volume, Cat. No. 874075), and for compound group, dilute sirt7 protein in SIRT Glo buffer and dispense by 5 μL to contain 20 ng per well. In the background control group, 10 μL of SIRT Glo buffer is dispensed.
After adding 5 μL of SIRT Glo buffer to the positive control group, and 5 μL of the diluted compound to the compound group, react for 30 minutes. After making the substrate provided in the SIRT Glo assay, adding 10 μL each, and reacting for 1 hour, the luciferase activity is measured with a microplate reader (Molecular Device, spectramax i3).
Subtract the luciferase level of the background control group in all wells. The % inhibition of the compound was used to obtain the compound's rate of inhibitory activity against sirt7 in the following:
% inhibition=100−(compound group/positive control group)×100.

| inhibition at 10 µM [%] | SMILES |
| --- | --- |
| 64 | O=C(Nc1nc2ccccc2s1)c1ccc(CN2C[C@@H]3C[C@H]2CN3C(=O)Nc2ccccc2)cc1 [Compound 1-73, (1S,4S)-5-(4-(benzo[d]thiazol-2-ylcarbamoyl)benzyl)-N-phenyl-2,5-diazabicyclo[2.2.1]heptane-2-carboxamide] |
| 10 | CC(C)(C)OC(=O)N1CC=C(c2ccc(C(=O)Nc3nc4ccccc4s3)cc2)CC1 [Compound 1-74, tert-butyl 4-(4-(benzo[d]thiazol-2-ylcarbamoyl)phenyl)-3,6-dihydropyridine-1-(2H)-carboxylate] |
| 5 | O=C(Nc1nc2ccccc2s1)c1ccc(C2=CCN(C(=O)Nc3ccc(C(F)(F)F)cc3)CC2)cc1 [Compound 1-76] |
| 6 | O=C(Nc1nc2ccccc2s1)c1ccc(C2CCN(C(=O)Nc3ccc(C(F)(F)F)cc3)CC2)cc1 [Compound 1-77] |
| 14 | CC(C)(C)OC(=O)N1CCC(=Cc2ccc(C(=O)Nc3nc4ccccc4s3)c(C(F)(F)F)c2)CC1 [Compound 1-78, tert-butyl 4-(4-(benzo[d]thiazol-2-ylcarbamoyl)-3-(trifluoromethyl)benzylidene)piperidine-1-carboxylate] |
| 71 | O=C(Nc1nc2ccccc2s1)c1ccc(C=C2CCNCC2)cc1C(F)(F)F [Compound 1-79, N-(benzo[d]thiazol-2-yl)-4-(piperidin-4-ylidenemethyl)-2-(trifluoromethyl)benzamide] |
| 80 | CCNC(=O)N1CCC(=Cc2ccc(C(=O)Nc3nc4ccccc4s3)c(C(F)(F)F)c2)CC1 [Compound 1-80, 4-(4-(benzo[d]thiazol-2-ylcarbamoyl)-3-(trifluoromethyl)benzylidene)-N-ethylpiperidine-1-carboxamide] |
| 32 | O=C(Nc1nc2ccccc2s1)c1ccc(C=C2CCN(C(=O)Nc3ccccc3)CC2)cc1C(F)(F)F [Compound 1-81, 4-(4-(benzo[d]thiazol-2-ylcarbamoyl)-3-(trifluoromethyl)benzylidene)-N-phenylpiperidine-1-carboxamide] |
| 2 | CC(C)(C)OC(=O)N1CCC(Cc2ccc(C(=O)Nc3nc4ccccc4s3)c(C(F)(F)F)c2)CC1 [Compound 1-82, tert-butyl 4-(4-(benzo[d]thiazol-2-ylcarbamoyl)-3-(trifluoromethyl)benzyl)piperidine-1-carboxylate] |
| 42 | O=C(Nc1nc2ccccc2s1)c1ccc(CC2CCNCC2)cc1C(F)(F)F [Compound 1-83, N-(benzo[d]thiazol-2-yl)-4-(piperidin-4-ylmethyl)-2-(trifluoromethyl)benzamide] |
| 53 | CCNC(=O)N1CCC(Cc2ccc(C(=O)Nc3nc4ccccc4s3)c(C(F)(F)F)c2)CC1 [Compound 1-84, 4-(4-(benzo[d]thiazol-2-ylcarbamoyl)-3-(trifluoromethyl)benzyl)-N-ethylpiperidine-1-carboxamide] |
| 28 | O=C(Nc1nc2ccccc2s1)c1ccc(CC2CCN(C(=O)Nc3ccccc3)CC2)cc1C(F)(F)F [Compound 1-85, 4-(4-(benzo[d]thiazol-2-ylcarbamoyl)-3-(trifluoromethyl)benzyl)-N-phenylpiperidine-1-carboxamide] |
| 60 | CC(C)(C)OC(=O)N1CCC(=Cc2ccc(C(=O)Nc3nc4ccccc4s3)c(F)c2)CC1 [Compound 1-86, tert-butyl 4-(4-(benzo[d]thiazol-2-ylcarbamoyl)-3-fluorobenzylidene)piperidine-1-carboxylate] |
| 100 | O=C(Nc1nc2ccccc2s1)c1ccc(C=C2CCNCC2)cc1F [Compound 1-87, N-(benzo[d]thiazol-2-yl)-2-fluoro-4-(piperidin-4-ylidenemethyl)benzamide] |
| 100 | CCNC(=O)N1CCC(=Cc2ccc(C(=O)Nc3nc4ccccc4s3)c(F)c2)CC1 [Compound 1-88, 4-(4-(benzo[d]thiazol-2-ylcarbamoyl)-3-fluorobenzylidene)-N-ethylpiperidine-1-carboxamide] |
| 97 | O=C(Nc1nc2ccccc2s1)c1ccc(C=C2CCN(C(=O)Nc3ccccc3)CC2)cc1F [Compound 1-89, 4-(4-(benzo[d]thiazol-2-ylcarbamoyl)-3-fluorobenzylidene)-N-phenylpiperidine-1-carboxamide] |

| inhibition at 10 µM [%] | SMILES |
| --- | --- |
| 27 | O=C(Nc1nc2ccccc2s1)c1ccc(C=C2CCN(S(=O)(=O)c3ccccc3)CC2)cc1F [Compound 1-90, N-(benzo[d]thiazol-2-yl)-2-fluoro-4-((1-(phenylsulfonyl)piperidin-4-ylidene)methyl)benzamide] |
| 76 | CCS(=O)(=O)N1CCC(=Cc2ccc(C(=O)Nc3nc4ccccc4s3)c(F)c2)CC1 [Compound 1-91, N-(benzo[d]thiazol-2-yl)-4-((1-(ethylsulfonyl)piperidin-4-ylidene)methyl)-2-fluorobenzamide] |
| 97 | O=C(Nc1nc2ccccc2s1)c1ccc(C=C2CCN(C(=O)c3ccccc3)CC2)cc1F [Compound 1-92, N-(benzo[d]thiazol-2-yl)-4-((1-benzoylpiperidin-4-ylidene)methyl)-2-fluorobenzamide] |
| 70 | O=C(Nc1nc2ccccc2s1)c1ccc(C=C2CCN(C(=O)Nc3ccc(C(F)(F)F)cc3)CC2)cc1F [Compound 1-93, 4-(4-(benzo[d]thiazol-2-ylcarbamoyl)-3-fluorobenzylidene)-N-(4-(trifluoromethyl)phenyl)piperidine-1-carboxamide] |
| 98 | CC(C)NC(=O)N1CCC(=Cc2ccc(C(=O)Nc3nc4ccccc4s3)c(F)c2)CC1 [Compound 1-94, 4-(4-(benzo[d]thiazol-2-ylcarbamoyl)-3-fluorobenzylidene)-N-isopropylpiperidine-1-carboxamide] |
| 34 | CC(C)(C)OC(=O)N1CCC(=Cc2ccc(C(=O)Nc3nc4ccccc4s3)cc2Cl)CC1 [Compound 1-95, tert-butyl 4-(4-(benzo[d]thiazol-2-ylcarbamoyl)-2-chlorobenzylidene)piperidine-1-carboxylate] |
| 91 | O=C(Nc1nc2ccccc2s1)c1ccc(C=C2CCNCC2)c(Cl)c1 [Compound 1-96, N-(benzo[d]thiazol-2-yl)-3-chloro-4-(piperidin-4-ylidenemethyl)benzamide] |
| 100 | CCNC(=O)N1CCC(=Cc2ccc(C(=O)Nc3nc4ccccc4s3)cc2Cl)CC1 [Compound 1-97, 4-(4-(benzo[d]thiazol-2-ylcarbamoyl)-2-chlorobenzylidene)-N-ethylpiperidine-1-carboxamide] |
| 21 | CC(C)(C)OC(=O)N1CCC(=Cc2cc(F)c(C(=O)Nc3nc4ccccc4s3)c(F)c2)CC1 [Compound 1-98, tert-butyl 4-(4-(benzo[d]thiazol-2-ylcarbamoyl)-3,5-difluorobenzylidene)piperidine-1-carboxylate] |
| 63 | O=C(Nc1nc2ccccc2s1)c1c(F)cc(C=C2CCNCC2)cc1F [Compound 1-99, N-(benzo[d]thiazol-2-yl)-2,6-difluoro-4-(piperidin-4-ylidenemethyl)benzamide] |
| 96 | CCNC(=O)N1CCC(=Cc2cc(F)c(C(=O)Nc3nc4ccccc4s3)c(F)c2)CC1 [Compound 1-100, 4-(4-(benzo[d]thiazol-2-ylcarbamoyl)-3,5-difluorobenzylidene)-N-ethylpiperidine-1-carboxamide] |
| 100 | O=C(Nc1nc2ccccc2s1)c1c(F)cc(C=C2CCN(C(=O)Nc3ccccc3)CC2)cc1F [Compound 1-101, 4-(4-(benzo[d]thiazol-2-ylcarbamoyl)-3,5-difluorobenzylidene)-N-phenylpiperidine-1-carboxamide] |
| 37 | O=C(Nc1nc2ccccc2s1)c1c(F)cc(C=C2CCN(C(=O)Nc3ccc(C(F)(F)F)cc3)CC2)cc1F [Compound 1-102, 4-(4-(benzo[d]thiazol-2-ylcarbamoyl)-3,5-difluorobenzylidene)-N-(4-(trifluoromethyl)phenyl)piperidine-1-carboxamide] |
| 44 | CC(C)(C)OC(=O)N1CCC(=Cc2ccc(C(=O)Nc3nc4ccccc4s3)c(Cl)c2)CC1 [Compound 1-103, tert-butyl 4-(4-(benzo[d]thiazol-2-ylcarbamoyl)-3-chlorobenzylidene)piperidine-1-carboxylate] |
| 92 | O=C(Nc1nc2ccccc2s1)c1ccc(C=C2CCNCC2)cc1Cl [Compound 1-104, N-(benzo[d]thiazol-2-yl)-2-chloro-4-(piperidin-4-ylidenemethyl)benzamide] |

| SMILES | inhibition at 10 µM [%] |
| --- | --- |
| O=C(Nc1nc2ccccc2s1)c1ccc(C2=CCNCC2)cc1 [Compound 1-75, N-(benzo[d]thiazol-2-yl)-4-(1,2,3,6-tetrahydropyridin-4-yl)benzamide] | 26 |
